The text below walks through data of patent US20120122832A1, “METHOD OF MAKING CEFQUINOME PARTICLES” (priority 2009, published 2012).

Data set [1] can be described thus: Particle size distribution (PSD) of precipitated cefquinome sulfate particles by laser light scattering. The format is physicochemical.
A short description of data set [2]: Particle size distribution of ethyl oleate formulations, Malvern Master Sizer with Hydro 2000G cell, Frauenhofer method. The format is physicochemical. The note with it: Table 1, Malvern Master Sizer. On the procedure:
The particle size was determined with a Malvern Master Sizer GMAL 01 with the Hydro 2000G measuring cell according to Frauenhofer method.

Setting [3] is: 1 minute stirring only in the measurement equipment.
Where [4] appears, read: 10 minutes stirring + 6 minutes of ultrasound.
Setting [5] is: 10 minutes stirring only in the measurement equipment.

Counter-ions that a name gives are not always drawn.

For `CO/N=C(\C(=O)N[C@@H]1C(=O)N2C(C(=O)[O-])=C(C[n+]3cccc4c3CCCC4)CS[C@H]12)c1csc(N)n1` [Example 8, Cefquinome sulfate], the “PSD D(50)” value in data set [1] (setting [3]) worked out at 4.78 μm; in data set [1] (setting [4]), 0.15 μm; in data set [1] (setting [5]) it was 3.34 μm. Besides, the “PSD D(100)” value in data set [1] (setting [3]) is on record as 239.9 μm; in data set [1] (setting [4]) it was 5.01 μm; in data set [1] (setting [5]), 11.48 μm. The “PSD DE(90)” value was 66.97 μm in data set [1] (setting [3]), 1.98 μm in data set [1] (setting [4]) and 5.95 μm in data set [1] (setting [5]).
For the compound `CO/N=C(\C(=O)N[C@@H]1C(=O)N2C(C(=O)[O-])=C(C[n+]3cccc4c3CCCC4)CS[C@H]12)c1csc(N)n1` [prior art non micronized material, cefquinome sulphate], in data set [2], the “D(0.50)” value came out at 63.01 μm, the “D(0.90)” value was 114.75 μm and the “D(100)” value came out at 178.25 μm.
